From patent US9718804B2, “GSK-3 inhibitors” (BRISTOL-MYERS SQUIBB COMPANY, priority 2013, dated 2017)

Columns and labels:
GSK3β = GSK3β (Homo sapiens, UniProt P49841); assay: GSK3β kinase assay (Caliper LabChip, fluoresceinated peptide substrate); assay type: biochemical; conditions: first value of the cell; 250 pM enzyme, 20 uM ATP, 20 hours at room temperature; read-out: GSK3β/α (nM): GSK3β IC50
Summary of the method: (§1)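 RT, 20 h incubation; EDTA stop (35 mM). Microfluidic electrophoretic separation of product vs. substrate.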

GSK3α = GSK3α (Homo sapiens, UniProt P49840); assay: GSK3α kinase assay (Caliper LabChip, fluoresceinated peptide substrate); assay type: biochemical
Summary of the method: as §1

pTau = pTau assay (no method described); assay type: cell-based

Chain of GSK3α (P49840 whole entry, species assumed): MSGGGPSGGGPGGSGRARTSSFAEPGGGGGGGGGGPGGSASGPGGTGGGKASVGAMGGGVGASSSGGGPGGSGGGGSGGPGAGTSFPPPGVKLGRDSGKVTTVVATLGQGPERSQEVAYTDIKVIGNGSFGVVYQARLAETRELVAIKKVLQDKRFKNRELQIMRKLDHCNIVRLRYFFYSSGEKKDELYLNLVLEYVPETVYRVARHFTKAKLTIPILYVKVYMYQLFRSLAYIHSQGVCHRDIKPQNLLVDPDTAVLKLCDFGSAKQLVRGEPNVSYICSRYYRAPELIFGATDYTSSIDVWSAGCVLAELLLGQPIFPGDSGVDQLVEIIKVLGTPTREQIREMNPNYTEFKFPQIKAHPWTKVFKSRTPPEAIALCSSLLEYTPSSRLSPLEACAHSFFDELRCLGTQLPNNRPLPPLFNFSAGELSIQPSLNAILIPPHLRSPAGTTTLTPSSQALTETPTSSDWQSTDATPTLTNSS
Chain of GSK3β (P49841 whole entry, species assumed): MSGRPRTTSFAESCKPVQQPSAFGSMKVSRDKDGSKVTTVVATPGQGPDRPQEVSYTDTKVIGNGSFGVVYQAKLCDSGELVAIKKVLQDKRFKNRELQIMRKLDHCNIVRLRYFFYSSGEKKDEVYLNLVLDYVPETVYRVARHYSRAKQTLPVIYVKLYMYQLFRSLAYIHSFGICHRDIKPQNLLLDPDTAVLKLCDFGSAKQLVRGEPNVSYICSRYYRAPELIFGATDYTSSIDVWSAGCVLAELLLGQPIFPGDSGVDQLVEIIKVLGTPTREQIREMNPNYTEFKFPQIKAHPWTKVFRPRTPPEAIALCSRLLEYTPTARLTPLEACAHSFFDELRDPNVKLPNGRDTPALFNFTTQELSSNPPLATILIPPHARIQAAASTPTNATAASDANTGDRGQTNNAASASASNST

`O=C(Nc1cncnc1Br)c1ccnc(Nc2ccc(C(F)(F)F)cn2)c1` [Example 192, N-(4-Bromopyrimidin-5-yl)-2-((5-(trifluoromethyl)pyridin-2-yl)amino)isonicotinamide] showed an IC50 (GSK3β) of 23 nM, an IC50 (GSK3α) of 9.3 nM and an IC50 (pTau) of 520 nM.
In the case of `O=C(Nc1cncnc1-c1ccccc1)c1ccnc(Nc2ccc(C(F)(F)F)cn2)c1` [Example 193, N-(4-Phenylpyrimidin-5-yl)-2-((5-(trifluoromethyl)pyridin-2-yl)amino)isonicotinamide], the IC50 (GSK3β) is reported as 3.6 nM, the IC50 (GSK3α) is reported as 1.9 nM and the IC50 (pTau) is reported as 165 nM.
In the case of `O=C(Nc1cncnc1OCC(F)(F)F)c1ccnc(Nc2ccc(C(F)(F)F)cn2)c1` [Example 194, N-(4-(2,2,2-Trifluoroethoxy)pyrimidin-5-yl)-2-((5-(trifluoromethyl)pyridin-2-yl)amino)isonicotinamide], the IC50 (GSK3β) is reported as 3.2 nM, the IC50 (GSK3α) is reported as 1.6 nM and the IC50 (pTau) is reported as 140 nM.
In the case of `O=C(Nc1cncnc1N1CCOCC1)c1ccnc(Nc2ccc(C(F)(F)F)cn2)c1` [Example 195, N-(4-Morpholinopyrimidin-5-yl)-2-((5-(trifluoromethyl)pyridin-2-yl)amino)isonicotinamide], the IC50 (GSK3β) is reported as 17 nM, the IC50 (GSK3α) is reported as 7.9 nM and the IC50 (pTau) is reported as 710 nM.
In the case of `O=C(Nc1ccnnc1)c1ccnc(Nc2ccc(C(F)(F)F)cn2)c1` [Example 196, N-(Pyridazin-4-yl)-2-((5-(trifluoromethyl)pyridin-2-yl)amino)isonicotinamide], the IC50 (GSK3β) is reported as 80 nM, the IC50 (GSK3α) is reported as 25 nM and the IC50 (pTau) is reported as 7400 nM.
In the case of `O=C(Nc1cnncc1Br)c1ccnc(Nc2ccc(C(F)(F)F)cn2)c1` [Example 197, N-(5-Bromopyridazin-4-yl)-2-((5-(trifluoromethyl)pyridin-2-yl)amino)isonicotinamide], the IC50 (GSK3β) is reported as 70 nM, the IC50 (GSK3α) is reported as 22 nM and the IC50 (pTau) is reported as 3500 nM.
Compound `O=C(Nc1cnncc1-c1ccccc1)c1ccnc(Nc2ccc(C(F)(F)F)cn2)c1` [Example 198, N-(5-Phenylpyridazin-4-yl)-2-((5-(trifluoromethyl)pyridin-2-yl)amino)isonicotinamide] has an IC50 (GSK3β) of 6.7 nM, an IC50 (GSK3α) of 2.9 nM and an IC50 (pTau) of 180 nM.
`CC1(c2cnncc2NC(=O)c2ccnc(Nc3ccc(C(F)(F)F)cn3)c2)OCCO1` [Example 200, N-(5-(2-Methyl-1,3-dioxolan-2-yl)pyridazin-4-yl)-2-((5-(trifluoromethyl)pyridin-2-yl)amino)isonicotinamide] showed an IC50 (GSK3β) of 0.62 nM, an IC50 (GSK3α) of 0.39 nM and an IC50 (pTau) of 3.2 nM.
`O=C(Nc1cnncc1C1(CCCCl)OCCO1)c1ccnc(Nc2ccc(C(F)(F)F)cn2)c1` [Example 201, N-(5-(2-(3-Chloropropyl)-1,3-dioxolan-2-yl)pyridazin-4-yl)-2-((5-(trifluoromethyl)pyridin-2-yl)amino)isonicotinamide] gave an IC50 (GSK3β) of 0.19 nM, an IC50 (GSK3α) of 0.4 nM and an IC50 (pTau) of 28 nM.
For `CC(O)(c1cnncc1NC(=O)c1ccnc(Nc2ccc(C(F)(F)F)cn2)c1)C1CC1` (stereo not drawn) [Example 203, N-(5-(1-Cyclopropyl-1-hydroxyethyl)pyridazin-4-yl)-2-((5-(trifluoromethyl)pyridin-2-yl)amino)isonicotinamide], the IC50 (GSK3β) was 1.2 nM, the IC50 (GSK3α) was 0.94 nM and the IC50 (pTau) was 10000 nM.
`O=C(Nc1cnsc1-c1ccccc1)c1ccnc(Nc2ccc(C(F)(F)F)cn2)c1` [Example 204, N-(5-Phenylisothiazol-4-yl)-2-((5-(trifluoromethyl)pyridin-2-yl)amino)isonicotinamide] was tested, and the IC50 (GSK3β) was 3 nM, the IC50 (GSK3α) was 1.7 nM and the IC50 (pTau) was 300 nM.
Work on `O=C(Nc1cn[nH]c1-c1ccccc1)c1ccnc(Nc2ccc(C(F)(F)F)cn2)c1` [Example 205, N-(5-Phenyl-1H-pyrazol-4-yl)-2-((5-(trifluoromethyl)pyridin-2-yl)amino)isonicotinamide] yielded an IC50 (GSK3β) of 28 nM, an IC50 (GSK3α) of 20 nM and an IC50 (pTau) of 10000 nM.
In the case of `CC(=O)c1c(NC(=O)c2ccnc(Nc3ccc(C(F)(F)F)cn3)c2)cnn1C` [Example 206, N-(5-Acetyl-1-methyl-1H-pyrazol-4-yl)-2-((5-(trifluoromethyl)pyridin-2-yl)amino)isonicotinamide], the IC50 (GSK3β) is reported as 3.1 nM, the IC50 (GSK3α) is reported as 2.7 nM and the IC50 (pTau) is reported as 400 nM.
For `Cn1ncc(NC(=O)c2ccnc(Nc3ccc(C(F)(F)F)cn3)c2)c1C1(C)OCCO1` [Example 207, N-(1-Methyl-5-(2-methyl-1,3-dioxolan-2-yl)-1H-pyrazol-4-yl)-2-((5-(trifluoromethyl)pyridin-2-yl)amino)isonicotinamide], the IC50 (GSK3β) was 0.09 nM, the IC50 (GSK3α) was 0.1 nM and the IC50 (pTau) was 1.4 nM.
`CC(O)c1c(NC(=O)c2ccnc(Nc3ccc(C(F)(F)F)cn3)c2)cnn1C` (stereo not drawn) [Example 208, N-(5-(1-Hydroxyethyl)-1-methyl-1H-pyrazol-4-yl)-2-((5-(trifluoromethyl)pyridin-2-yl)amino)isonicotinamide] showed an IC50 (GSK3β) of 3 nM, an IC50 (GSK3α) of 3.6 nM and an IC50 (pTau) of 120 nM.
In the case of `Cn1ncc(NC(=O)c2ccnc(Nc3ccc(C(F)(F)F)cn3)c2)c1C(C)(O)C1CC1` (stereo not drawn) [Example 209, N-(5-(1-Cyclopropyl-1-hydroxyethyl)-1-methyl-1H-pyrazol-4-yl)-2-((5-(trifluoromethyl)pyridin-2-yl)amino)isonicotinamide], the IC50 (GSK3β) is reported as 0.3 nM, the IC50 (GSK3α) is reported as 0.21 nM and the IC50 (pTau) is reported as 21 nM.
Work on `O=C(Nc1cnc2cccnn12)c1ccnc(Nc2ccc(C(F)(F)F)cn2)c1` [Example 210, N-(Imidazo[1,2-b]pyridazin-3-yl)-2-((5-(trifluoromethyl)pyridin-2-yl)amino)isonicotinamide] yielded an IC50 (GSK3β) of 33 nM, an IC50 (GSK3α) of 11 nM and an IC50 (pTau) of 2300 nM.
